Results: ChEMBL document CHEMBL4732067, “Synthesis and evaluation of new compounds bearing 3-(4-aminopiperidin-1-yl)methyl magnolol scaffold as anticancer agents for the treatment of non-small cell lung cancer via targeting autophagy” (Eur J Med Chem, 2021)

Key:
[1] = test system: NCI-H460; assay: Antitumor activity against human NCI-H460 cells xenografted in nude BABL/c mouse assessed as tumor growth inhibition at 10 mg/kg, po administered once daily and measured every two days by caliper method relative to control; type: functional; settings: 48 h, read-out: TGI
[2] = test system: NCI-H460; assay: Induction of apoptosis in human NCI-H460 cells assessed as late apoptotic cells at 10 uM after 48 hrs by Annexin V-FITC/propidium iodide staining based flow cytometric analysis (reference value: 3.995 %); type: functional
[3] = test system: NCI-H460; assay: Induction of apoptosis in human NCI-H460 cells assessed as viable cells at 10 uM after 48 hrs by Annexin V-FITC/propidium iodide staining based flow cytometric analysis (reference value: 91.528 %); type: functional; settings: read-out: Activity
[4] = Metabolic stability in human liver microsomes assessed as intrinsic clearance per gram protein; type: ADME, Microsome
[5] = test system: NCI-H460; assay: Induction of apoptosis in human NCI-H460 cells assessed as early apoptotic cells at 10 uM after 48 hrs by Annexin V-FITC/propidium iodide staining based flow cytometric analysis (reference value: 3.980 %); type: functional
[6] = test system: NCI-H1650; assay: Antiproliferative activity against human NCI-H1650 cells expressing EGFR mutant assessed as reduction in cell viability after 72 hrs by MTT assay; type: functional, cell-based; settings: NCI-H1650, 72 h
[7] = test system: NCI-H460; assay: Induction of apoptosis in human NCI-H460 cells assessed as necrotic cells at 5 uM after 48 hrs by Annexin V-FITC/propidium iodide staining based flow cytometric analysis (reference value: 0.498 %); type: functional
[8] = test system: NCI-H460; assay: Antitumor activity against human NCI-H460 cells xenografted in nude BABL/c mouse assessed as tumor growth inhibition at 60 mg/kg, po administered once daily and measured every two days by caliper method relative to control; type: functional; settings: 48 h, read-out: TGI
[9] = test system: NCI-H441; assay: Antiproliferative activity against human NCI-H441 cells […] assessed as reduction in cell viability after 72 hrs by MTT assay; type: functional, cell-based; settings: NCI-H441, 72 h
[10] = test system: NCI-H460; assay: Induction of apoptosis in human NCI-H460 cells assessed as early apoptotic cells at 1 uM after 48 hrs by Annexin V-FITC/propidium iodide staining based flow cytometric analysis (reference value: 3.980 %); type: functional
[11] = test system: NCI-H460; assay: Induction of apoptosis in human NCI-H460 cells assessed as necrotic cells at 10 uM after 48 hrs by Annexin V-FITC/propidium iodide staining based flow cytometric analysis (reference value: 0.498 %); type: functional
[12] = test system: NCI-H460; assay: Induction of apoptosis in human NCI-H460 cells assessed as viable cells at 2 uM after 48 hrs by Annexin V-FITC/propidium iodide staining based flow cytometric analysis (reference value: 91.528 %); type: functional; settings: read-out: Activity
[13] = test system: NCI-H460; assay: Induction of cell cycle arrest in human NCI-H460 cells assessed as accumulation at G0/G1 phase at 10 uM incubated for 24 hrs by propidium iodide staining based flow cytometry (reference value: 53.97 %); type: functional
[14] = test system: NCI-H460; assay: Induction of cell cycle arrest in human NCI-H460 cells assessed as accumulation at G2/M phase at 1 uM incubated for 24 hrs by propidium iodide staining based flow cytometry (reference value: 16.71 %); type: functional
[15] = test system: NCI-H460; assay: Induction of apoptosis in human NCI-H460 cells assessed as necrotic cells at 2 uM after 48 hrs by Annexin V-FITC/propidium iodide staining based flow cytometric analysis (reference value: 0.498 %); type: functional
[16] = Antiproliferative activity against human SPCA1 cells expressing wild type EGFR assessed as reduction in cell viability after 72 hrs by MTT assay; type: functional, cell-based; settings: SPCA1, 72 h
[17] = test system: NCI-H460; assay: Induction of apoptosis in human NCI-H460 cells assessed as late apoptotic cells at 5 uM after 48 hrs by Annexin V-FITC/propidium iodide staining based flow cytometric analysis (reference value: 3.995 %); type: functional
[18] = test system: NCI-H460; assay: Induction of apoptosis in human NCI-H460 cells assessed as early apoptotic cells at 2 uM after 48 hrs by Annexin V-FITC/propidium iodide staining based flow cytometric analysis (reference value: 3.980 %); type: functional
[19] = Antitumor activity against mouse C26 cells xenografted in BALB/c mouse assessed as tumor growth inhibition at 50 mg/kg, po administered once daily and measured every two days by caliper method relative to control; type: functional; settings: 48 h, read-out: TGI
[20] = test system: NCI-H460; assay: Induction of cell cycle arrest in human NCI-H460 cells assessed as accumulation at G2/M phase at 5 uM incubated for 24 hrs by propidium iodide staining based flow cytometry (reference value: 16.71 %); type: functional
[21] = test system: HCC827; assay: Antiproliferative activity against human HCC827 cells assessed as reduction in cell viability after 72 hrs by MTT assay; type: functional, cell-based; settings: HCC827, 72 h
[22] = test system: A549; assay: Antiproliferative activity against human A549 cells expressing wild type EGFR assessed as reduction in cell viability after 72 hrs by MTT assay; type: functional, cell-based; settings: A549, 72 h
[23] = Metabolic stability in human liver microsomes assessed as half life; type: ADME, Microsome
[24] = test system: NCI-H460; assay: Induction of cell cycle arrest in human NCI-H460 cells assessed as accumulation at S phase at 1 uM incubated for 24 hrs by propidium iodide staining based flow cytometry (reference value: 29.32 %); type: functional
[25] = test system: NCI-H460; assay: Induction of apoptosis in human NCI-H460 cells assessed as late apoptotic cells at 1 uM after 48 hrs by Annexin V-FITC/propidium iodide staining based flow cytometric analysis (reference value: 3.995 %); type: functional
[26] = test system: L929; assay: Cytotoxicity against mouse L929 cells; type: cell-based
[27] = test system: NCI-H460; assay: Induction of cell cycle arrest in human NCI-H460 cells assessed as accumulation at G0/G1 phase at 1 uM incubated for 24 hrs by propidium iodide staining based flow cytometry (reference value: 53.97 %); type: functional
[28] = test system: NCI-H460; assay: Induction of cell cycle arrest in human NCI-H460 cells assessed as accumulation at G2/M phase at 10 uM incubated for 24 hrs by propidium iodide staining based flow cytometry (reference value: 16.71 %); type: functional
[29] = test system: NCI-H460; assay: Induction of cell cycle arrest in human NCI-H460 cells assessed as accumulation at G0/G1 phase at 5 uM incubated for 24 hrs by propidium iodide staining based flow cytometry (reference value: 53.97 %); type: functional
[30] = test system: NCI-H460; assay: Induction of apoptosis in human NCI-H460 cells assessed as viable cells at 5 uM after 48 hrs by Annexin V-FITC/propidium iodide staining based flow cytometric analysis (reference value: 91.528 %); type: functional; settings: read-out: Activity
[31] = test system: NCI-H1975; assay: Antiproliferative activity against human NCI-H1975 cells assessed as reduction in cell viability after 72 hrs by MTT assay; type: functional, cell-based; settings: NCI-H1975, 72 h
[32] = test system: NCI-H460; assay: Induction of cell cycle arrest in human NCI-H460 cells assessed as accumulation at S phase at 5 uM incubated for 24 hrs by propidium iodide staining based flow cytometry (reference value: 29.32 %); type: functional
[33] = test system: NCI-H460; assay: Antiproliferative activity against human NCI-H460 cells assessed as reduction in cell viability after 72 hrs by MTT assay; type: functional, cell-based; settings: NCI-H460, 72 h
[34] = test system: NCI-H460; assay: Induction of apoptosis in human NCI-H460 cells assessed as early apoptotic cells at 5 uM after 48 hrs by Annexin V-FITC/propidium iodide staining based flow cytometric analysis (reference value: 3.980 %); type: functional
[35] = test system: NCI-H460; assay: Induction of apoptosis in human NCI-H460 cells assessed as necrotic cells at 1 uM after 48 hrs by Annexin V-FITC/propidium iodide staining based flow cytometric analysis (reference value: 0.498 %); type: functional
[36] = test system: NCI-H460; assay: Induction of apoptosis in human NCI-H460 cells assessed as viable cells at 1 uM after 48 hrs by Annexin V-FITC/propidium iodide staining based flow cytometric analysis (reference value: 91.528 %); type: functional; settings: read-out: Activity
[37] = test system: NCI-H460; assay: Induction of apoptosis in human NCI-H460 cells assessed as late apoptotic cells at 2 uM after 48 hrs by Annexin V-FITC/propidium iodide staining based flow cytometric analysis (reference value: 3.995 %); type: functional
[38] = test system: NCI-H460; assay: Induction of cell cycle arrest in human NCI-H460 cells assessed as accumulation at S phase at 10 uM incubated for 24 hrs by propidium iodide staining based flow cytometry (reference value: 29.32 %); type: functional
[39] = Toxicity in nude BALB/c mouse xenografted with C26 cells assessed as abnormalities in liver size and morphology at 50 mg/kg, po administered once daily; type: organism-based; settings: in vivo
[40] = Toxicity in nude BALB/c mouse xenografted with C26 cells assessed as abnormalities in kidney size and morphology at 50 mg/kg, po administered once daily; type: organism-based; settings: in vivo
[41] = Toxicity in nude BALB/c mouse xenografted with C26 cells assessed as abnormalities in lung size and morphology at 50 mg/kg, po administered once daily; type: organism-based; settings: in vivo
[42] = Toxicity in nude BALB/c mouse xenografted with C26 cells assessed as body weight loss at 60 mg/kg, po administered once daily and measured every two days; type: organism-based; settings: in vivo
[43] = Toxicity in nude BALB/c mouse xenografted with C26 cells assessed as change in body weight at 50 mg/kg, po administered once daily and measured every two days; type: organism-based; settings: in vivo
[44] = Toxicity in nude BALB/c mouse xenografted with C26 cells assessed as abnormalities in heart size and morphology at 50 mg/kg, po administered once daily; type: organism-based; settings: in vivo

CCN(CC)CCCC(C)Nc1ccnc2cc(Cl)ccc12 (stereo not given) [CHLOROQUINE PHOSPHATE]
inhibition in vivo at 10 mg/kg [1]: 8.67%

C=CCc1ccc(O)c(-c2cc(CC=C)cc(CN3CCC(N)CC3)c2O)c1
Activity [2]: 7.246% | viability at 10 µM [3]: 73.4% | CLint [4]: 11 mL/min/g | Activity [5]: 19.124% | IC50 [6]: 6.46 µM | Activity [7]: 0.51% | inhibition in vivo at 60 mg/kg [8]: 45.2% | IC50 [9]: 7.12 µM | Activity [10]: 6.017% | Activity [11]: 0.173% | viability at 2 µM [12]: 87.6% | Activity [13]: 65.66% | Activity [14]: 22.68% | Activity [15]: 1.301% | IC50 [16]: 9.66 µM | Activity [17]: 5.72% | Activity [18]: 6.067% | inhibition in vivo at 50 mg/kg [19]: 45.5% | Activity [20]: 18.49% | IC50 [21]: 10.8 µM | IC50 [22]: 8.31 µM | half-life [23]: 2.1 h | Activity [24]: 22.32% | Activity [25]: 4.207% | IC50 [26]: 0.83 µM | Activity [27]: 55% | Activity [28]: 15.16% | Activity [29]: 58.76% | viability at 5 µM [30]: 86.9% | IC50 [31]: 8.68 µM | Activity [32]: 22.74% | IC50 [33]: 9.25 µM | Activity [34]: 6.82% | Activity [35]: 0.931% | viability at 1 µM [36]: 88.8% | Activity [37]: 5.012% | Activity [38]: 19.19%

C=CCc1ccc(OCC)c(-c2cc(CC=C)cc(CN3CCC(NC(=O)[C@@H](N)Cc4ccccc4)CC3)c2O)c1
CLint [4]: 56.4 mL/min/g | IC50 [6]: 2.34 µM | IC50 [9]: 2.12 µM | Activity [39]: Non-Toxic | Activity [40]: Non-Toxic | IC50 [16]: 1.94 µM | Activity [41]: Non-Toxic | inhibition in vivo at 50 mg/kg [19]: 57.4% | IC50 [21]: 0.82 µM | IC50 [22]: 2 µM | half-life [23]: 0.41 h | IC50 [26]: 6.24 µM | IC50 [31]: 1.45 µM | Activity [42]: Toxic | IC50 [33]: 1.11 µM | Activity [43]: Toxic | Activity [44]: Non-Toxic
